Laboratory results: PMC11793105, “A kalihinol analog disrupts apicoplast function and vesicular trafficking in P. falciparum malaria” (Science (New York, N.Y.), 2024)

What was measured:
[1] = tested on: P. falciparum W2 (MRA-157, chloroquine resistant); experiment: SYBR Green I growth inhibition assay, W2; assay type: cell-based, Plasmodium falciparum; settings: early-ring stage, 72 h exposure
Method: (§1) Fig. 1. […] (B) SYBR Green–based dose response assays were conducted on early-ring stage parasites (6 hours after invasion). […] 3D7 WT (blue), NF54 (green), drug-resistant strains Dd2 (red), HB3 (black), W2 (gray), and D10-ACP-GFP (purple) lines (Sigmoidal, 4PL, X is concentration, n ≥ 3, nonlinear regression, CI: 95%). (C) Schematic diagram of the development of P. falciparum after two consecutive erythrocytic cycles. The time points at which MED6-189 was introduced are depicted in green. HPS, hours post synchronization. […] The images depict various developmental stages of the parasite’s intraerythrocytic life cycle. Bordered images represent time points when drug was first introduced (n = 3 biological replicates, P < 0.05).
(§2) Detailed information on materials and methods is available in the supplementary materials. […] P. knowlesi assays were quantitatively measured by flow cytometry using SYBR Green I and Mitrotracker Deep Red, as previously described ([84], [85]), on a Beckman Coulter CytoFLEX. […]
(§3) P. falciparum in vitro SYBR green fluorescence-based assays The anti-malarial activity of individual analogues were evaluated in-vitro against P. falciparum 3D7 (MRA-102, drug […]
green-I based fluorescence assay. Parasite growth rate and stages of development were determined via microscopy through Giemsa-stained smears of the cultures. […]

[2] = tested on: P. falciparum D10-ACP-GFP (MRA-568); experiment: SYBR Green I growth inhibition assay, D10-ACP-GFP; assay type: cell-based, Plasmodium falciparum; settings: early-ring stage, 72 h exposure
Method: as §1, with “Bordered images represent time points when drug was first introduced (n = 3 biological replicates, P < 0.05).” left out
Fluorescence microscopy analyses were conducted using D10-ACP-GFP transgenic parasites, which express a fusion of the acyl carrier protein (ACP) with green fluorescent protein (GFP) in the parasite apicoplast ([25]). […]
as §2, §3
green-I based fluorescence assay. […]

Question: What does the source list for `[C-]#[N+][C@]1(C)CC[C@H]2[C@@H]([C@@H](C(C)C)CC[C@]2(C)[N+]#[C-])[C@H]1O` [MED6-189]?
Answer: IC50 ([1]; Plasmodium falciparum, W2, 72 h): 27 ± 5 nM; IC50 [1]: 26.7 nM; IC50 ([2]; Plasmodium falciparum, D10, 72 h): 17 nM; IC50 [2]: 17.2 nM
